Molecules are shown by their SMILES.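 A five-concentration, 48-hour dose response in 96-well plates underlies each endpoint, interpolated linearly between surrounding concentrations. The concentration for 50% growth inhibition is given as GI50. The concentration for full growth arrest is given as TGI.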 Where a SMILES comes first, the peptide text is derived from it. The star is where a group is joined. Boc = CC(C)(C)OC(=O)* Some results are limits rather than exact numbers.

Our source for the TGI and GI50 values is PubChem BioAssay (NCI).

Some test systems named below: RXF 393 renal; MDA-MB-435; OVCAR-4 ovarian; T-47D breast; BT-549 breast; OVCAR-8 ovarian; NCI-H522 lung; TK-10 renal; 786-0 renal; RPMI-8226 leukemia.
Common to all, as to assay: NCI anticancer screen, dose series, 48 h

Consider `CC(CCc1nc2ccccc2s1)(c1ccc(O)cc1)c1ccc(O)cc1`, for which the TGI stood at 33.2 µM with RXF 393 renal; 30.8 µM with MDA-MB-435; 37 µM in the assay on OVCAR-4 ovarian; 95.2 µM in the assay on T-47D breast; 39.7 µM with BT-549 breast; 39.6 µM with OVCAR-8 ovarian. The TGI was determined as 32 µM in the assay with NCI-H522 lung, 34.1 µM in the assay on TK-10 renal and 30.2 µM in the assay on 786-0 renal.
For the compound `Cc1c(OCc2cccc3ccccc23)ccc2c(=O)cc(SCCN3CCOCC3)oc12`, the TGI in the assay on RXF 393 renal, with MDA-MB-435, in the assay on OVCAR-4 ovarian, in the assay with T-47D breast, with BT-549 breast and with OVCAR-8 ovarian was greater than 100 µM each time. Besides, the TGI in the assay on NCI-H522 lung, in the assay on TK-10 renal and in the assay on 786-0 renal was greater than 100 µM each time.
For the compound `COC(=O)/C=C\n1nc(Br)c(=O)[nH]c1=O`, the TGI in the assay with RXF 393 renal, in the assay on MDA-MB-435, in the assay on RPMI-8226 leukemia, in the assay with OVCAR-4 ovarian, with T-47D breast and with BT-549 breast was greater than 100 µM throughout. Besides, the TGI with OVCAR-8 ovarian, in the assay on NCI-H522 lung and in the assay with TK-10 renal was greater than 100 µM each time.
As for `CCOc1ccc2nc3nc(=O)[nH]c(C)c3c(NC(C)(CO)CO)c2c1`, the TGI in the assay with RXF 393 renal, in the assay with MDA-MB-435, in the assay with OVCAR-4 ovarian, with T-47D breast, in the assay with BT-549 breast and with OVCAR-8 ovarian was greater than 100 µM throughout. In addition, the TGI in the assay on NCI-H522 lung, with TK-10 renal and in the assay with 786-0 renal was greater than 100 µM in each case.
As for `O=C(O)Cn1c2c(c3c1-c1ccccc1C3=O)C(=O)CCC2`, the GI50 in the assay on RXF 393 renal, in the assay with MDA-MB-435, in the assay on OVCAR-4 ovarian, in the assay on T-47D breast, in the assay with BT-549 breast and in the assay with OVCAR-8 ovarian was greater than 100 µM each time. For the same compound, the GI50 in the assay on NCI-H522 lung and with TK-10 renal was greater than 100 µM throughout. The TGI in the assay on RXF 393 renal, in the assay on MDA-MB-435, with OVCAR-4 ovarian, in the assay with T-47D breast, with BT-549 breast and in the assay with OVCAR-8 ovarian was greater than 100 µM in each case. Besides, the TGI in the assay on NCI-H522 lung and with TK-10 renal was greater than 100 µM in each case.
On to `O=C1CCCCC/C1=C\c1cccc(F)c1`, for which the TGI was greater than 100 µM in the assay with RXF 393 renal; greater than 100 µM in the assay on MDA-MB-435; 97.5 µM in the assay with RPMI-8226 leukemia; greater than 100 µM in the assay on T-47D breast; greater than 100 µM with BT-549 breast; greater than 100 µM in the assay with OVCAR-8 ovarian. For the same compound, the TGI with TK-10 renal and with 786-0 renal was greater than 100 µM throughout.
Regarding `COC(=O)C1C(=O)CC(C)(O)C(C(=O)OC)C1c1ccc(N(C)C)cc1` (centres undefined), the TGI in the assay with RXF 393 renal, in the assay with MDA-MB-435, in the assay with OVCAR-4 ovarian, in the assay on T-47D breast, with BT-549 breast and in the assay with OVCAR-8 ovarian was greater than 100 µM throughout. Besides, the TGI was greater than 100 µM in the assay with NCI-H522 lung, greater than 100 µM in the assay on TK-10 renal and 24.7 µM with 786-0 renal.
In the case of `Oc1c(Cl)cc2cc1-c1cc(cc(Cl)c1O)CCc1c(cc(Cl)c(O)c1Cl)-c1cc(Cl)c(c(Cl)c1O)/C=C\2`, the TGI with RXF 393 renal was greater than 50 µM; in the assay on MDA-MB-435 it was 21.7 µM; in the assay on RPMI-8226 leukemia it was greater than 50 µM; in the assay on OVCAR-4 ovarian, 24 µM; in the assay with T-47D breast it was 19.2 µM; in the assay with BT-549 breast, greater than 50 µM. Also, the values for the TGI with OVCAR-8 ovarian and in the assay on 786-0 renal were 16.1 µM and 16.6 µM, respectively.
With `O=c1[nH]nc(-c2ccccc2)c2[nH]c3c(c12)Cc1ccccc1-3`, the TGI in the assay with RXF 393 renal is greater than 42.2 µM; in the assay on MDA-MB-435, 37.3 µM; in the assay with RPMI-8226 leukemia, greater than 28.4 µM; in the assay on OVCAR-4 ovarian it was greater than 100 µM; in the assay with T-47D breast, greater than 100 µM; in the assay with BT-549 breast, greater than 100 µM. In addition, the TGI in the assay with OVCAR-8 ovarian, with TK-10 renal and in the assay on 786-0 renal was greater than 100 µM each time.
Consider `[N-]=[N+]=Nc1nc2ccccc2c(N=[N+]=[N-])c1Cl`, for which the TGI in the assay with RXF 393 renal is greater than 100 µM; in the assay on MDA-MB-435, greater than 100 µM; in the assay on RPMI-8226 leukemia, greater than 100 µM; with OVCAR-4 ovarian, greater than 100 µM; with T-47D breast, greater than 100 µM; in the assay on BT-549 breast, 89.6 µM. Moreover, the TGI in the assay on TK-10 renal and in the assay on 786-0 renal was greater than 100 µM each time.
For `CC(C)(C)OC(=O)C(C#N)C(=O)c1ccc(C(=O)O)[nH]1` (centres undefined), the TGI in the assay on MDA-MB-435 is greater than 100 µM; in the assay on RPMI-8226 leukemia, greater than 100 µM; with OVCAR-4 ovarian, 52.9 µM; in the assay on T-47D breast, greater than 100 µM; in the assay on BT-549 breast it was greater than 100 µM; in the assay on OVCAR-8 ovarian, greater than 100 µM. The TGI with NCI-H522 lung, in the assay with TK-10 renal and in the assay with 786-0 renal was greater than 100 µM throughout.
On to `CC(=O)CC(=O)N1CCSC1=S`, for which the TGI in the assay on RXF 393 renal, in the assay with MDA-MB-435, with RPMI-8226 leukemia, with T-47D breast, in the assay with BT-549 breast and with OVCAR-8 ovarian was greater than 10 µM each time. Further, the TGI in the assay with TK-10 renal and in the assay on 786-0 renal was greater than 10 µM each time.
With `c1ccc2c[n+](CCCC[n+]3ccc4ccccc4c3)ccc2c1`, the TGI in the assay with RXF 393 renal, with MDA-MB-435, in the assay with RPMI-8226 leukemia, in the assay with OVCAR-4 ovarian, in the assay on T-47D breast and in the assay on BT-549 breast was greater than 100 µM throughout. The TGI in the assay with OVCAR-8 ovarian, in the assay on TK-10 renal and in the assay on 786-0 renal was greater than 100 µM throughout.
As for `COC(=O)C(Cc1c[nH]c2ccccc12)NC(=O)C(Cc1c[nH]c2ccccc12)NC(=O)C(Cc1c[nH]c2ccccc12)NC(=O)C(Cc1c[nH]c2ccccc12)NC(=O)C(Cc1c[nH]c2ccccc12)NC(=O)C(Cc1c[nH]c2ccccc12)NC(=O)C(Cc1c[nH]c2ccccc12)NC(=O)OC(C)(C)C` (centres undefined) (Boc-WWWWWWW-OMe; configuration not given here), the TGI in the assay with MDA-MB-435, in the assay with RPMI-8226 leukemia, with OVCAR-4 ovarian, with T-47D breast, in the assay with BT-549 breast and in the assay on OVCAR-8 ovarian was greater than 100 µM throughout. The TGI in the assay with NCI-H522 lung, with TK-10 renal and in the assay on 786-0 renal was greater than 100 µM each time.
